The values below come from PMC11883000, “Structure-function relationship of ASH1L and histone H3K36 and H3K4 methylation” (Nature Communications, 2025).

For data set [1], the target named is T1, ASH1LPHD (Homo sapiens, UniProt Q9NR48).
T1 construct: ASH1LPHD (aa 2579-2629); GST (N, cleaved yes); made in house; host or cells: E. coli BL21 or Rosetta2 (DE3) pLysS
Nature of the data set: Tryptophan fluorescence binding, WT ASH1LPHD. From the text:
Human ASH1L constructs ASH1LPHD (aa 2579-2629), ASH1LBD (aa 2430-2564) and ASH1LPHD-BAH (aa 2579- 2794 and 2579-2834), ASH1LBD-PHD (aa 2430-2629) were cloned into pDEST15 vector with a TEV or Precission cleavage site. ASH1LBD-PHD-BAH (aa 2436-2833), ASH1LSET-BD-PHD (aa 2074-2629) and ASH1LSET-BD-PHD-BAH (aa 2069-2834) were in pGEX6P-1 and pMOCR vectors. Mutants of Ash1LPHD and Ash1LBD were generated following Quikchange mutagenesis protocols. Each construct was expressed in BL21 or Rosetta2 (DE3) pLysS cells in LB or minimal media supplemented with ^15NH4Cl (and ZnCl2 for PHD finger-containing constructs). Cultures were induced with 0.5 mM IPTG and grown for 18 h at 16 °C. After harvesting, the GST-tagged proteins were purified using glutathione agarose (Thermo Scientific) in 20 mM Tris pH 7.5, 150-500 mM NaCl, 5 mM MgCl2 and 2 mM DTT. For experiments requiring GST-tagged constructs, the proteins were eluted in a buffer containing 20 mM Tris pH 7.5, 150-500 mM NaCl, 5 mM MgCl2, 50 mM reduced glutathione and 2 mM DTT. For crystallography and biochemical assays, the GST tag was cleaved overnight at 4 °C with TEV or PreScission protease, and proteins were further purified by size exclusion chromatography (SEC). Protein fractions were checked for purity by SDS-PAGE and concentrated in a concentrator (Millipore).
(§1) Fluorescence spectra were collected at 25 °C on a Fluoromax-3 and Fluoromax-4 plus C spectrofluorometers (HORIBA). […] Emission spectra were recorded between 320 and 360 nm with a 0.5 nm step size and a 0.5 s integration time. The Kd values were determined using a nonlinear least-squares analysis and the equation:3 ΔI=ΔImax((L+P+Kd)−L+P+Kd^2−4[P][L])/2[P] where [L] is concentration of the peptide, [P] is concentration of the protein, ΔI is the observed change of signal intensity, and ΔImax is the difference in signal intensity of the free and bound states of the protein. The Kd values were averaged over three independent experiments with error calculated as the standard deviation between the runs.

Another data set deals with T2, ASH1LPHD D2584A (Homo sapiens, UniProt Q9NR48, D2584A).
T2 construct: ASH1LPHD (aa 2579-2629); GST (N, cleaved yes); made in house; host or cells: E. coli BL21 or Rosetta2 (DE3) pLysS
Nature of the data set: Tryptophan fluorescence binding, ASH1LPHD D2584A. The note with it: 25 °C, pH 7.5, mean ± S.D., three independent experiments.
Description: (§2) Human ASH1L constructs ASH1LPHD (aa 2579-2629), ASH1LBD (aa 2430-2564) and ASH1LPHD-BAH (aa 2579- 2794 and 2579-2834), ASH1LBD-PHD (aa 2430-2629) were cloned into pDEST15 vector with a TEV or Precission cleavage site. ASH1LBD-PHD-BAH (aa 2436-2833), ASH1LSET-BD-PHD (aa 2074-2629) and ASH1LSET-BD-PHD-BAH (aa 2069-2834) were in pGEX6P-1 and pMOCR vectors. Mutants of Ash1LPHD and Ash1LBD were generated following Quikchange mutagenesis protocols. Each construct was expressed in BL21 or Rosetta2 (DE3) pLysS cells in LB or minimal media supplemented with ^15NH4Cl (and ZnCl2 for PHD finger-containing constructs). Cultures were induced with 0.5 mM IPTG and grown for 18 h at 16 °C. […]
as §1

The target of the next data set is T3, ASH1LPHD D2595A (Homo sapiens, UniProt Q9NR48, D2595A).
T3 construct: ASH1LPHD (aa 2579-2629); GST (N, cleaved yes); made in house; host or cells: E. coli BL21 or Rosetta2 (DE3) pLysS
Kind of data set: Tryptophan fluorescence binding, ASH1LPHD D2595A. The note with it: 25 °C, pH 7.5, mean ± S.D., three independent experiments.
Description: as §2, §1

The next data set deals with T4, ASH1LPHD Q2601K (Homo sapiens, UniProt Q9NR48, Q2601K).
T4 construct: ASH1LPHD (aa 2579-2629); GST (N, cleaved yes); made in house; host or cells: E. coli BL21 or Rosetta2 (DE3) pLysS
Nature of the data set: Tryptophan fluorescence binding, ASH1LPHD Q2601K. The note with it: 25 °C, pH 7.5, mean ± S.D., three independent experiments.
Description: as §2, §1

A further data set addresses T5, ASH1LPHD-BAH (Homo sapiens, UniProt Q9NR48).
T5 construct: ASH1LPHD-BAH (aa 2579- 2794 and 2579-2834); GST (N, cleaved yes); made in house; host or cells: E. coli BL21 or Rosetta2 (DE3) pLysS
Nature of the data set: Tryptophan fluorescence binding, ASH1LPHD-BAH. The following applies: 25 °C, pH 7.5, mean ± S.D., three independent experiments.
Description: as §2, §1

The test system of data set [2] is H3K4me3-NCP. Type of data set: binding. The note with it: EMSA; 0.025 µM nucleosome, increasing protein, pH 7.5, on ice 5 min. (A gel shift assay detects complexes by their altered migration in electrophoresis.)
Data set [3] relates to H3K4me3-NCP. Nature of the data set: Liquid HMT assay of GST-ASH1LSET-BD-PHD on H3K4me3-nucleosomes. The note with it: D2595K mutant compared to WT ASH1LSET-BD-PHD on H3K4me3-NCP; presence or absence of MRG15; 3H-SAM, 60 min at 30 °C, pH 8. Type of data set: biochemical. The method, then: Fig. 6 Binding of ASH1LPHD to H3K4me3 inhibits enzymatic activity of ASH1L. a Overlay of ^1H,^15N HSQC spectra of ASH1LBD in the absence (black) or presence of the indicated molar ratios of ASH1LSET. b Overlay of ^1H,^15N HSQC spectra of ASH1LPHD in the absence (black) or presence (blue) of ASH1LSET. c Liquid histone methyltransferase (HMT) assays of GST-ASH1LSET-BD-PHD-BAH on recombinant nucleosomes carrying H3K4me3 or unmodified NCP. GST-ASH1LSET-BD-PHD-BAH was pre-incubated with substrate and MRG15 (or BSA) prior addition of ^3H S-adenosyl methionine. GST, control. […] Live cells were counted over a 6-day time course. […]
Recombinant ASH1L (WT and mutant) constructs, tagged at the N-terminus with GST and at the C-terminus with 6XHis, were generated and purified using Sepharose beads and Ni-NTA beads. […] Methyltransferase activity of the proteins was measured with 0.5 μCi of ^3H labeled S-adenosyl methionine (18 Ci/mmol; PerkinElmer Life Sciences). […] The reactions were captured on P81 filter paper, the free ^3H-labeled SAM was washed away, and the paper was analyzed by Liquid Scintillation.

Data set [4] addresses T1, ASH1LPHD. Nature of the data set: NMR titration (1H,15N HSQC), WT ASH1LPHD. Type of data set: binding. The note with it: unlabeled ASH1LSET titrated into 15N-labeled ASH1LPHD.
Description: as §2, with “°C. After harvesting, the GST-tagged proteins were purified using glutathione agarose (Thermo Scientific) in 20 mM Tris pH 7.5, 150-500 mM NaCl, 5 mM MgCl2 and 2 mM DTT.” for “°C.”
(§3) NMR experiments were performed at 298 K on Varian 600 MHz and 900 MHZ spectrometers equipped with a cryogenic probe. Chemical shift perturbation experiments were carried out using 0.1–0.2 mM uniformly ^15N-labeled wild type or mutant proteins in 25 mM Tris pH 7.5 buffer, supplemented with 150 mM NaCl, 5 mM DTT and 5-7% D2O. ^1H,^15N heteronuclear single quantum coherence (HSQC) or transverse relaxation optimized spectroscopy (TROSY) spectra were recorded in the absence and presence of increasing concentrations of ligands. […]

In the next data set the test system is ASH1LBD. Kind of data set: NMR titration (1H,15N HSQC), ASH1LBD. Format: binding, Human. The following applies: unlabeled ASH1LSET titrated into 15N-labeled ASH1LBD.
Description: as §2, with “°C. After harvesting, the GST-tagged proteins were purified using glutathione agarose (Thermo Scientific) in 20 mM Tris pH 7.5, 150-500 mM NaCl, 5 mM MgCl2 and 2 mM DTT.” for “°C.”
as §3

Setting [5] is: WT, summary of tryptophan fluorescence and MST, di- and trimethylated peptides, read-out: binding affinity.

Where two headings read alike, the source gives them in different places.

With `C[C@H](N)C(=O)N[C@@H](CCCNC(=N)N)C(=O)N[C@H](C(=O)N[C@@H](CCCCN(C)C)C(=O)N[C@@H](CCC(N)=O)C(=O)N[C@H](C(=O)N[C@@H](C)C(=O)N[C@@H](CCCNC(=N)N)C(=O)N[C@@H](CCCCN)C(=O)N[C@@H](CO)C(=O)N[C@H](C(=O)NCC(=O)O)[C@@H](C)O)[C@@H](C)O)[C@@H](C)O` [H3K4me2], the Kd on ASH1LPHD [1] (setting [5]) is 1000 to 2000 nM; on ASH1LPHD [1] (tryptophan fluorescence, H3 aa 1-12, excitation 295 nm, emission 320-360 nm, 25 °C, 0.5–2 μM protein, 20–25 mM Tris pH 7.5, 150 mM NaCl, 3 mM DTT, mean ± S.D., three independent experiments, read-out: Kd), 1000 ± 400 nM.
With `C[C@H](N)C(=O)N[C@@H](CCCNC(=N)N)C(=O)N[C@H](C(=O)N[C@@H](CCCC[N+](C)(C)C)C(=O)N[C@@H](CCC(N)=O)C(=O)N[C@H](C(=O)N[C@@H](C)C(=O)N[C@@H](CCCNC(=N)N)C(=O)N[C@@H](CCCCN)C(=O)N[C@@H](CO)C(=O)N[C@H](C(=O)NCC(=O)O)[C@@H](C)O)[C@@H](C)O)[C@@H](C)O` [H3K4me3], the Kd on ASH1LPHD [1] (setting [5]) was 1000 to 2000 nM; on ASH1LPHD D2584A, 5000 to 7000 nM; on ASH1LPHD D2595A, 5000 to 7000 nM; on ASH1LPHD Q2601K, 1000 ± 300 nM; on ASH1LPHD-BAH, 1000 ± 400 nM.
Regarding “ASH1LPHD: Human ASH1L PHD finger (aa 2579-2629) (HEKDDDVIRCICGLYKDEGLMIQCDKCMVWQHCDCMGVNSDVEHYLCEQCD; left off: GST, end not stated, cleaved)”, the “binding to H3K4me3-NCP” value in the data set with H3K4me3-NCP [2] is “incapable”.
Consider “ASH1LSET-BD-PHD D2595K mutant: D2595K mutant of ASH1LSET-BD-PHD (aa 2074-2629)”, for which the methyltransferase activity result with H3K4me3-NCP [3] is “increase in the methyltransferase activity”.
As for “ASH1LSET: isolated unlabeled ASH1LSET domain”, the “interaction of ASH1LSET with ASH1LPHD (CSPs)” value in the data set with ASH1LPHD [4] was “does not interact with ASH1LPHD”. The “interaction of ASH1LSET with ASH1LBD (CSPs)” value in the data set with ASH1LBD is reported as “direct contact with ASH1LBD”.
